≈ marks a conversion by molar mass, not a printed value.
Columns and labels:
[1] = test system: Mycobacterium tuberculosis H37Rv (ATCC 27294); assay: BACTEC 460 radiometric system, primary screen and MIC against M. tuberculosis H37Rv; type: cell-based; details: for MIC: Mycobacterium tuberculosis; for % Inhibition: primary screen at 12.5 or 6.25 ug/ml
[2] = test system: Mycobacterium tuberculosis H37Rv (ATCC 27294); assay: Microplate Alamar Blue Assay (MABA), primary screen and MIC against M. tuberculosis H37Rv; type: cell-based; set-up: MIC H37Rv: unit not given beside the values; details: for MIC: Mycobacterium tuberculosis, M. tuberculosis H37Rv; for MIC / % Inhibition: ASSAY ALAMAR; for % Inhibition: primary screen at 12.5 or 6.25 ug/ml
[3] = test system: M. tuberculosis Erdman (ATCC 35801) in mouse bone marrow macrophages; assay: Killing of M. tuberculosis Erdman in monolayers of mouse bone marrow macrophages (EC90, EC99); type: cell-based, Mycobacterium tuberculosis
M. tuberculosis Erdman = assay: MIC in the MABA against drug-sensitive strain Erdman; type: cell-based; details: Mycobacterium tuberculosis, read-out: MIC ERDMA (ug/ml)
M.tuberculosis (H37Rv) = details: compared with 4-aminosalicylic acid; cited from earlier work
[4] = primary screen, BACTEC, M. tuberculosis H37Rv, read-out: MIC

## O=Cc1ccc(/C=N/c2ccc(C(=O)Oc3ccccc3)c(O)c2)cc1 [SAMPLE ID 130069]
[1]; [4]
  MIC: < 12.5 µg/mL
[1]; BACTEC, M. tuberculosis H37Rv
  % Inhibition: 99%

## O=C(Oc1ccccc1)c1ccc(NC(=S)Nc2ccccc2)cc1O [SAMPLE ID 131326]
[1]; Table 4, assay not given, read-out: MIC
  MIC: 0.2 µg/mL (≈ 0.549 µM)
[1]; actual MIC, ASSAY BACTEC, M. tuberculosis H37Rv, read-out: MIC
  MIC: 0.2 µg/mL (≈ 0.549 µM)
[1]; [4]
  MIC: < 12.5 µg/mL
[1]; BACTEC, M. tuberculosis H37Rv
  % Inhibition: 100%
[2]; Table 9 strain panel, drug-sensitive strain H37Rv
  MIC H37Rv: 1.56
[3]; 99% reduction in colony forming units at 7 days, bactericidal activity
  EC99: 0.92 µg/mL
[3]; Mycobacterium tuberculosis, Bone marrow macrophage, 168 h, 90% reduction in colony forming units at 7 days, bacteriostatic activity
  EC90: 0.203 µg/mL (≈ 0.557 µM)
M. tuberculosis Erdman
  MIC: 0.2 µg/mL (≈ 0.549 µM)

## CO[C@H]1/C=C/O[C@@]2(C)Oc3c(C)c(O)c4c(O)c(c(/C=N/N5CCN(C)CC5)c(O)c4c3C2=O)NC(=O)/C(C)=C\C=C\[C@H](C)[C@H](O)[C@@H](C)[C@@H](O)[C@@H](C)[C@H](OC(C)=O)[C@@H]1C [RMP, rifampin, reference compound]
[1]; reference drug in the COMMENT column of the primary screen, read-out: MIC of RMP vs. M. tuberculosis
  MIC: 0.25 µg/mL

## O=C(Oc1ccccc1)c1ccc(/N=C/c2ccc([N+](=O)[O-])cc2)cc1O [SAMPLE ID 133652]
[1]; actual MIC, ASSAY BACTEC, M. tuberculosis H37Rv
  MIC: 0.1 µg/mL (≈ 0.276 µM)
[1]; primary screen, BACTEC, M. tuberculosis H37Rv
  MIC: < 12.5 µg/mL
[1]; BACTEC, M. tuberculosis H37Rv
  % Inhibition: 97%

## Nc1ccc(C(=O)Oc2ccccc2)c(O)c1 [phenyl 4-aminosalicylate]
M.tuberculosis (H37Rv)
  destruction of the virulent strain of M.tuberculosis (H37Rv): even better than 4-aminosalicylic acid

## CCC(=O)Nc1ccc(C(=O)Oc2ccccc2)c(OC(=O)CC)c1 [SAMPLE ID 138392]
[2]
  MIC: 0.39 µg/mL (≈ 1.14 µM)
  % Inhibition: 94%

## O=C(Oc1ccccc1)c1ccc(/C=N/c2ccccc2[N+](=O)[O-])cc1O [SAMPLE ID 139235]
[2]
  MIC: 0.025 µg/mL (≈ 0.069 µM)
  % Inhibition: 97%
